Several values for one entry are separate records, joined by “and”; a condition that tells them apart may be missing. Identical values can stand only once. Counter-ions that a name gives are not always drawn.
What was measured:
[1] = target: human RORγt LBD (Homo sapiens (Human), UniProt P51449); assay: RORγt reporter assay (GAL4-RORγt LBD luciferase, HEK293T cells); format: cell-based; conditions: for RORγt reporter Assay, % inhibition @ 6 μM / IC50: HEK293T cells; for IC50: 24 hours compound treatment; for inhibition at 6 µM: HEK-293T, read-out: RORγt reporter Assay, % inhibition @ 6 μM, 6 μM, HEK293T cells
Excerpt: A reporter assay was used to test functional activity of RORγt modulatory compounds on transcriptional activation driven by the RORγt LBD. Cells used in the assay were co-transfected with two constructs. The first construct, pBIND-RORγt LBD, contained the wild type human RORγt LBD fused to the DNA binding domain of the GAL4 protein. The second construct, pGL4.31 (Promega Cat no. C935A), contained multiple GAL4 responsive DNA elements upstream of firefly luciferase. […] The mutant construct was called pBIND-RORγt-AF2. […] The pBIND vector contains the GAL4 DNA Binding Domain (GAL4 DBD) and the renilla luciferase gene under control of the SV40 promoter. Renilla luciferase expression serves as a control for transfection efficiency and cell viability.
The reporter assay was performed by transiently transfecting HEK293T cells with 5 μg of pBIND-RORγt LBD or pBIND-RORγt LBD-AF2 and 5 μg pGL4.31 (Promega Cat no. C935A) using Fugene 6 (Invitrogen Cat no. E2691) at a 1:6 ratio of DNA: Fugene 6 in a T-75 flask in which cells were at least 80% confluent. Twenty four hours after bulk transfection, cells were plated into 96-well plates at 50,000 cells/well in phenol-red free DMEM containing 5% Lipid Reduced FCS and Pen/Strep. Six hours after plating, cells were treated with compounds for 24 hours. Media was removed and cells were lysed with 50 μL 1x Glo Lysis Buffer (Promega). Dual Glo Luciferase Reagent (50 μL/well) was then added and firefly luciferase luminescence was read on an Envision after a ten minute incubation. Finally, Stop and Glo reagent (50 μL/well) was added and renilla luciferase luminescence was read on an Envision after a ten minute incubation. To calculate the effect of compounds on RORγt activity, the ratio of firefly to renilla luciferase was determined and plotted against compound concentration. Agonist compounds increase RORγt-driven luciferase expression, and antagonist or inverse agonist compounds decrease luciferase expression.

[2] = target: human RORγt ligand binding domain (RORγt LBD) (Homo sapiens (Human), UniProt P51449); assay: RORγt ThermoFluor assay (thermal shift, binding affinity); conditions: estimated from thermal shift concentration response
Description: This approach is applicable to a wide variety of systems, and rigorous in theoretical interpretation through quantitation of equilibrium binding constants (KD).
The shift in the melting point described as a ΔTm is proportional to the concentration and affinity of the ligand.
ThermoFluor® experiments were carried out using instruments owned by Janssen Research and Discovery, L.L.C. through its acquisition of 3-Dimensional Pharmaceuticals, Inc. 1,8-ANS (Invitrogen) was used as a fluorescent dye. Protein and compound solutions are dispensed into black 384-well polypropylene PCR microplates (Abgene) and overlayed with silicone oil (1 μL, Fluka, type DC 200) to prevent evaporation.
Bar-coded assay plates are robotically loaded onto a thermostatically controlled PCR-type thermal block and then heated at a typical ramp-rate of 1° C./min for all experiments. Fluorescence was measured by continuous illumination with UV light (Hamamatsu LC6) supplied via fiber optic and filtered through a band-pass filter (380-400 nm; >60D cutoff). Fluorescence emission of the entire 384-well plate was detected by measuring light intensity using a CCD camera (Sensys, Roper Scientific) filtered to detect 500±25 nm, resulting in simultaneous and independent readings of all 384 wells. Images were collected at each temperature, and the sum of the pixel intensity in a given area of the assay plate was recorded versus temperature. Reference wells contained RORγt without compounds, and the assay conditions were as follows: • 0.065 mg/mL RORγt • 60 μM 1,8-ANS • 100 mM Hepes, pH 7.0 • 10 mM NaCl • 2.5 mM GSH • 0.002% Tween-20
Project compounds were arranged in a pre-dosed mother plate (Greiner Bio-one) wherein compounds are serially diluted in 100% DMSO by 1:2 from a high concentration of 10 mM over 12 columns within a series (column 12 is a reference well containing DMSO, no compound). The compounds were robotically dispensed directly into assay plates (1x=[…]) using a Hummingbird capillary liquid handling instrument (Digilab). Following compound dispense, protein and dye in buffer was added to achieve the final assay volume of 3 μL, followed by 1 μL of silicone oil.

[3] = tested on: IL-17 production by CD4 T cells; assay: Human Th17 assay; format: cell-based; conditions: IL-17 in supernatant after 3 days, human CD4+ T cells under Th17 differentiation
Excerpt: The human Th17 assay tests the effect of RORγt modulatory compounds on IL-17 production by CD4 T cells under conditions which favor Th17 differentiation.
Total CD4^+ T cells were isolated from the peripheral blood mononuclear cells (PBMC) of healthy donors using a CD4^+ T cell isolation kit II, following the manufacturer's instructions (Miltenyi Biotec). Cells were resuspended in a medium of RPMI-1640 supplemented with 10% fetal bovine serum, penicillin, streptomycin, glutamate, and β-mercaptoethanol and were added to 96-well plates at 1.5×10^5 per 100 μL per well. 50 μL of compound at titrated concentrations in DMSO were added into each well at final DMSO concentration at 0.2%. Cells were incubated for 1 hour, then 50 μL of Th17 cell differentiation medium was added to each well. The final concentrations of antibodies and cytokines (R&D Systems) in differentiation medium were: 3×10^6/mL anti-CD3/CD28 beads (prepared using human T cell activation/expansion kit, Miltenyi Biotec), 10 μg/mL anti-IL4, 10 μg/mL anti-IFNγ, 10 ng/mL IL113, 10 ng/mL IL23, 50 ng/mL IL6, 3 ng/mL TGFβ and 20 U/mL IL2. Cells were cultured at 37° C. and 5% CO2 for 3 days. Supernatants were collected and the accumulated IL-17 in culture was measured by using MULTI-SPOT® Cytokine Plate following manufacture's instruction (Meso Scale Discovery). The plate was read using Sector Imager 6000, and IL-17 concentration was extrapolated from the standard curve. The IC50s were determined by GraphPad.

Sequence of human RORγt LBD (P51449 258-518): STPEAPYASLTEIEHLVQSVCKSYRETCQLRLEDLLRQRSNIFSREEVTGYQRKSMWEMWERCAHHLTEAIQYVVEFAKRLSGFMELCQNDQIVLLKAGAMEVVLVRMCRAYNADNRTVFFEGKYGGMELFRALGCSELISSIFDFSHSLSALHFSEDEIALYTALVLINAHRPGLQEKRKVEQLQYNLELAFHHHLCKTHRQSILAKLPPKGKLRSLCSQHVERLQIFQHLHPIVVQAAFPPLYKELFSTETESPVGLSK
Sequence of human RORγt ligand binding domain (RORγt LBD) (P51449 other isoform, or with tags, fused parts or gaps): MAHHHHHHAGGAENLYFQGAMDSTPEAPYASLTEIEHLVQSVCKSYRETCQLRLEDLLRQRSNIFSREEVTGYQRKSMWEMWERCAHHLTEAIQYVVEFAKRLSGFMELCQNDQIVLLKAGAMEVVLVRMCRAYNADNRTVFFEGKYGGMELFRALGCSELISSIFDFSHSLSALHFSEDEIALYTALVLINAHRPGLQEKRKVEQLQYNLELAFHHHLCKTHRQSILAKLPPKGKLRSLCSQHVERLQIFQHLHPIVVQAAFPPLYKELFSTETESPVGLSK

| SMILES | RORγt reporter Assay, % inhibition @ 6 μM [1] [%] | IC50 [1] | Kd [2] [µM] | IC50 [3] [µM] | inhibition at 6 µM [1] [%] | IC50 ([3]; Homo sapiens, CD4+ T, 72 h) [µM] |
| --- | --- | --- | --- | --- | --- | --- |
| Cn1cncc1C(O)(c1ccc(C(F)(F)F)nc1)c1ccc2nc(C#N)c(Oc3ccccc3)c(C#N)c2c1 (single isomer, unassigned) [Example 22c, 6-(Hydroxy(1-methyl-1H-imidazol-5-yl)(6-(trifluoromethyl)pyridin-3-yl)methyl)-3-phenoxyquinoline-2,4-dicarbonitrile] | 88 | 0.68 µM | 0.097 |  |  |  |
| Cn1cncc1C(O)(c1ccc(C(F)(F)F)nc1)c1ccc2nc(C#N)c(Oc3ccccc3)c(C#N)c2c1 (single isomer, unassigned) [Example 22b, 6-(Hydroxy(1-methyl-1H-imidazol-5-yl)(6-(trifluoromethyl)pyridin-3-yl)methyl)-3-phenoxyquinoline-2,4-dicarbonitrile] | 48 | ~6 µM and > 6 µM | 0.0029 |  |  |  |
| Cn1cncc1C(O)(c1ccc(C(F)(F)F)nc1)c1ccc2nc(N3CCC3)c(Oc3ccc(Cl)cc3)c(Cl)c2c1 (single isomer, unassigned) [Example 30c, (2-(Azetidin-1-yl)-4-chloro-3-(4-chlorophenoxy)quinolin-6-yl)(1-methyl-1H-imidazol-5-yl)(6-(trifluoromethyl)pyridin-3-yl)methanol] | 97 |  |  | 0.02 |  |  |
| CCOc1nc2ccc(C(O)(c3ccc(Cl)cc3)c3cncn3C)cc2c(Cl)c1Oc1ccccc1 (single isomer, unassigned) [Example 2a, (4-Chloro-2-ethoxy-3-phenoxyquinolin-6-yl)(4-chlorophenyl)(1-methyl-1H-imidazol-5-yl)methanol.TFA] | 88 |  |  | 0.61 |  |  |
| CCN(CC)c1nc2ccc(C(O)(c3ccc(C(F)(F)F)nc3)c3cncn3C)cc2c(Cl)c1Oc1ccc(F)cc1 (single isomer, unassigned) [Example 9c] | 84 |  |  | 0.092 |  |  |
| CCN(CC)c1nc2ccc(C(O)(c3ccc(C(F)(F)F)nc3)c3cncn3C)cc2c(C(F)(F)F)c1Oc1ccc(Cl)cc1 (single isomer, unassigned) [Example 27c, (3-(4-Chlorophenoxy)-2-(diethylamino)-4-(trifluoromethyl)quinolin-6-yl)(1-methyl-1H-imidazol-5-yl)(6-(trifluoromethyl)pyridin-3-yl)methanol] | 89 |  |  | 0.49 |  |  |
| Cn1cncc1C(O)(c1ccc(C(F)(F)F)nc1)c1ccc2nc(N3CCC3)c(Oc3ccc(Cl)cc3)c(Cl)c2c1 (single isomer, unassigned) [Example 30b, (2-(Azetidin-1-yl)-4-chloro-3-(4-chlorophenoxy)quinolin-6-yl)(1-methyl-1H-imidazol-5-yl)(6-(trifluoromethyl)pyridin-3-yl)methanol] |  |  |  | 0.064 | 103 |  |
| Cn1cncc1C(O)(c1ccc(Cl)cc1)c1ccc2nc(C#N)c(Oc3ccccc3)c(Cl)c2c1 (stereo not drawn) [Example 19, 4-Chloro-6-((4-chlorophenyl)(hydroxy)(1-methyl-1H-imidazol-5-yl)methyl)-3-phenoxyquinoline-2-carbonitrile.TFA] |  |  |  |  | 85 | 0.17 |
| CCN(CC)c1nc2ccc(C(O)(c3ccc(OC)nc3)c3cncn3C)cc2c(Cl)c1Oc1ccccc1 (stereo not drawn) [Example 5a, (4-Chloro-2-(diethylamino)-3-phenoxyquinolin-6-yl)(6-methoxypyridin-3-yl)(1-methyl-1H-imidazol-5-yl)methanol] |  |  |  |  | 104 | 0.13 |
| CCN(CC)c1nc2ccc(C(O)(c3ccc(Cl)cc3)c3cncn3C)cc2c(Cl)c1Nc1ccccc1 (stereo not drawn) [Example 45, (4-Chloro-2-(diethylamino)-3-(phenylamino)quinolin-6-yl)(4-chlorophenyl)(1-methyl-1H-imidazol-5-yl)methanol.TFA] |  | 0.81 µM | 0.27 |  | 91 |  |
| CCOc1nc2ccc(C(O)(c3ccc(Cl)cc3)c3cncn3C)cc2c(Cl)c1Oc1ccccc1 (single isomer, unassigned) [Example 2c] | 92 |  |  | 0.21 |  |  |
| CCN(CC)c1nc2ccc(C(O)(c3ccc(C(F)(F)F)nc3)c3cncn3C)cc2c(Cl)c1Oc1ccccc1 (single isomer, unassigned) [Example 6c, (4-Chloro-2-(diethylamino)-3-phenoxyquinolin-6-yl)(1-methyl-1H-imidazol-5-yl)(6-(trifluoromethyl)pyridin-3-yl)methanol] | 88 |  |  | 0.21 |  |  |
| Cn1cncc1C(O)(c1ccc(Cl)cc1)c1ccc2nc(Cl)c(Oc3ccccc3)c(Cl)c2c1 (stereo not drawn) [Example 1, (4-Chlorophenyl)(2,4-dichloro-3-phenoxyquinolin-6-yl)(1-methyl-1H-imidazol-5-yl)methanol] |  | 0.67 µM | 0.11 |  | 86 |  |
| CCN(CC)c1nc2ccc(C(O)(c3ccc(Cl)cc3)c3cncn3C)cc2c(Cl)c1Oc1ccccc1 (single isomer, unassigned) [Example 3c, (4-Chloro-2-(diethylamino)-3-phenoxyquinolin-6-yl)(4-chlorophenyl)(1-methyl-1H-imidazol-5-yl)methanol] | 104 |  |  |  |  | 0.12 |
| CCN(CC)c1nc2ccc(C(O)(c3ccc(C(F)(F)F)nc3)c3cncn3C)cc2c(Cl)c1Oc1ccccc1 (single isomer, unassigned) [Example 6b, (4-Chloro-2-(diethylamino)-3-phenoxyquinolin-6-yl)(1-methyl-1H-imidazol-5-yl)(6-(trifluoromethyl)pyridin-3-yl)methanol] |  |  |  | 0.05 | 93 |  |
| CCN(CC)c1nc2ccc(C(O)(c3ccc(C(F)(F)F)nc3)c3cncn3C)cc2c(C(F)(F)F)c1Oc1ccc(Cl)cc1 (stereo not drawn) [Example 27a, (3-(4-Chlorophenoxy)-2-(diethylamino)-4-(trifluoromethyl)quinolin-6-yl)(1-methyl-1H-imidazol-5-yl)(6-(trifluoromethyl)pyridin-3-yl)methanol] |  |  |  |  | 89 | 0.18 |

Reference: US9303015B2, “Heteroaryl linked quinolinyl modulators of RORγt” (Janssen Pharmaceutica NV, priority 2012, dated 2016)
